From PMC11071266, “The putative proton-coupled organic cation antiporter is involved in uptake of triptans into human brain capillary endothelial cells” (Fluids and Barriers of the CNS, 2024)
Where two headings read alike, the source gives them in different places.

What was measured:
[1] = In vivo brain distribution by neuropharmacokinetic assessment at steady state; parameters: species or system mice; conditions: for Kp at 2 h / concentration at 2 h: male, mouse; for Kp at 2 h: brain and plasma
Procedure: Male Abcb1a/Abcb1b-eKO1 (P-gp knockout) mice and FVB wild-type counterparts (18–24 g at arrival) were obtained from Shanghai Biomodel Organism Science & Technology Development Co. Ltd (Shanghai, China). […] Animals were housed in pairs in a temperature-controlled environment (20–24 °C) with lighting maintained under a 12-h light–dark cycle. Animals were habituated for at least seven days prior to surgery with free access to food and water.
In vivo experiments were conducted to assess the extent of the BBB transport of eletriptan and to elucidate the involvement of active transport processes. All mice were cannulated in the jugular vein for intravenous drug administration. Following surgery, the animals were allowed to recover for 3 days before administration of test compounds. Eletriptan HBr was dosed in P-gp knockout and wild type mice using a loading dose of 2 mg/kg (as bolus) followed by a 2-h constant rate infusion of 3 mg/kg (1.5 mg/kg/h) dissolved in 0.9% NaCl. […] Throughout all studies a dose volume of 10 mL/kg was applied. Serial blood samples were taken from the saphenous vein during the infusion to verify steady state and at the end of infusion. Terminal blood samples were collected from all animals. Brain samples were prepared by homogenization using ultrasonication as described previously [39] and analyzed together with the plasma samples using LC–MS/MS [39].
The total brain and plasma concentration partition coefficient (Kp) was calculated from Eq. 7.7 Kp=Ctot,brain,ss/Ctot,plasma,ss where Ctot,brain,ss and Ctot,plasma,ss is the total drug concentration at steady state in brain and plasma, respectively.
The unbound brain and plasma partition coefficient (Kp,uu) was derived from dividing the unbound brain concentration with the unbound plasma concentration at the end of infusion for each animal. The Kp,uu was calculated from Eq. 8.8 Kp,uu=Ctot,brain,ss·fu,brain/Ctot,plasma,ss·fu,plasma where fu,brain and fu,plasma is the fraction of unbound drug in the brain and plasma, respectively.

H^+/OC antiporter [2] = assay: Inhibition of [^3H]-pyrilamine uptake into hCMEC/D3 cells; type: cell-based, human; conditions: [^3H]-pyrilamine 1 µCi/mL, 48 nM, read-out: Apparent IC50 on [^3H]-pyrilamine uptake
Procedure: (§1) The immortalized human cerebral microvascular endothelial cell line (hCMEC/D3) was maintained in T75-flasks coated with collagen type I from calf skin (C9791, 18.7 μg/mL) and cultured in EBM®-2 medium (Lonza, Basel, Schweiz) supplemented with 5% (v/v) fetal bovine serum (FBS, 10270, Life Technologies, CA, USA or SH3008803, ThermoFisher Scientific, MA, USA), 100 U/mL penicillin and 100 μg/ml streptomycin, 1 ng/mL human basic fibroblast growth factor (bFGF), 1.4 μM hydrocortisone, 1% (v/v) chemically defined lipid concentrate (ThermoFisher Scientific, MA, USA), 10 mM N-2-hydroxyethylpiperazine-N-2-ethane sulfonic acid (HEPES) and 5 μg/mL ascorbic acid (5% CO2, 37 °C). […] For experiments, cells were seeded into 24-well plates (6.7·10^4 cells/cm^2) and cultured for four continuous days. The cells were used for experiments between passage 3–31.
(§2) The cells were equilibrated in hHBSS with or without inhibitor for 15 min (37 °C, 90 rpm). The compound of interest was spiked into the hHBSS followed by incubation for a designated time. The timeframe of the initial uptake rate was validated into hCMEC/D3 cells (Fig. 1 and Additional file 1). The experiment was terminated by washing three times with ice-cold HBSS supplemented with 0.0375% (v/v) sodium bicarbonate.
The inhibitory constant at 50% inhibition (IC50) was determined by fitting the uptake flux (Jss) as function of the logarithmic inhibitor concentration to Eq. 2.2 Jss=Jmin+(Jmax-Jmin)/1+10^logIC50-InH where [I] is the inhibitor concentration, nH is the Hill coefficient.
The hCMEC/D3 cells were used for [^3H]-pyrilamine inhibition studies between passage 3–6 (pyrilamine, oxycodone), 16–18 (almotriptan), 7–13 (eletriptan), 25–27 (frovatriptan), 3–8 (naratriptan), 16–18 (rizatriptan), 12–14 (sumatriptan), and 14–16 (zolmitriptan).
The cells were permeabilized using 0.1% (v/v) Triton X-100 in ultrapure water (ELGA, Buckinghamshire, England) for 10 min at room temperature. Thereafter, the cells were scraped off the bottom of the wells, transferred to scintillation vials, and mixed with 2 mL of Ultima Gold 241 TM (Perkin Elmer, MA, USA). The samples were analyzed using a Tri-Carb 2910 TR Liquid Scintillation Analyzer (Perkin Elmer, MA, USA).

H^+/OC antiporter [3] = assay: Cellular uptake into hCMEC/D3 cells after intra- and extracellular pH manipulation; type: cell-based, human
[4] = pH 7.4; cited from earlier work
in vitro = conditions: C57, mouse, plasma
Description: C57 mice were used to prepare blank plasma and brain matrices throughout all binding studies.

P-gp [5] = tested on: P-gp; parameters: method as in PMID 12814962; conditions: brain Kp in wild type and mdr1a knockout mice; cited from earlier work
H^+/OC antiporter [6] = tested on: H^+/OC antiporter; parameters: method as in PMID 35955563; conditions: trans-stimulation in hCMEC/D3 cells; cited from earlier work
P-gp [7] = biological target: P-gp (Homo sapiens, UniProt P08183); parameters: expressed in transfected cells; host or cells: IPEC-J2 (porcine ileum epithelial cell line); method as in PMID 12438524; conditions: MDR1-MDCKII cell line; cited from earlier work
H^+/OC antiporter [8] = assay: Concentration-dependent cellular uptake into hCMEC/D3 cells (Michaelis-Menten kinetics); type: cell-based, human
Procedure: as §1, §2
To assess the concentration-dependent uptake, the uptake flux was fitted to the Michaelis–Menten equation, Eq. 1.1 Jss=Jmax[S]/Km+[S] where Jss represents flux under steady state, Jmax is the maximal flux, [S] is the substrate concentration, and Km is the Michaelis–Menten constant.
The hCMEC/D3 cells were used for concentration-dependent uptake studies between passage 21–23 (pyrilamine), 11–13 (oxycodone), 12–14 (almotriptan), 16–18 (eletriptan), and 12–14 (sumatriptan).
The cells were permeabilized using 50% (v/v) acetonitrile (HPLC LC–MS grade, VWR International S.A.S, Soeborg, Denmark) in ultrapure water (ELGA, Buckinghamshire, England) for 10 min at room temperature. Thereafter, the cells were scraped off the bottom of the wells and transferred to HPLC vials. Samples from bidirectional transport experiments were transferred directly into HPLC vials. All samples were stored at – 18 °C for later analysis. Calibration curves with standards in the range of 1 or 5–1000 ng/mL were dissolved in 50% (v/v) acetonitrile in ultrapure water (ELGA, Buckinghamshire, England), or in hHBSS(-) for analysis of bidirectional transport samples.
Liquid chromatography tandem mass spectrometry (LC–MS/MS) were performed using electrospray ionization in positive mode on a micromass Quattro micro™ API tandem quadrupole mass spectrometer (Waters, MA, USA) or an Ultivo triple quadrupole mass spectrometer (Agilent Technologies, CA, USA) coupled to Agilent HPLC system 1100 Series or 1260 Series (Agilent Technologies, CA, USA California), respectively. Applied columns were an InfinityLab Poroshell 120 EC-C18 (3.0 × 50 mm; 2.7 micron, Agilent Technologies, CA, USA) or a Kinetex 2.6 μm XB-C18 (100 Å, 100 × 4.6 mm, Phenomenex Inc., CA, USA). An overview of applied HPLC and MS/MS parameters can be found in Additional file 2 and Additional file 3, respectively. The data acquisition software was MassLynx (V4.1, Waters, MA, USA).
The protein content of hCMEC/D3 cells was determined for normalization purposes. Cells were washed with ice-cold phosphate buffered saline following cell lysis in cell extraction buffer (FNN0011, Thermo Fisher Scientific, MA, USA) supplemented with 1 × cOmplete™ Protease Inhibitor Cocktail (04693116001, Roche, Basel, Schweiz), 1 mM phenylmethylsulfonyl fluoride, and […] for 30 min on ice.

P-gp (Homo sapiens, UniProt P08183), sequence (P08183 whole entry): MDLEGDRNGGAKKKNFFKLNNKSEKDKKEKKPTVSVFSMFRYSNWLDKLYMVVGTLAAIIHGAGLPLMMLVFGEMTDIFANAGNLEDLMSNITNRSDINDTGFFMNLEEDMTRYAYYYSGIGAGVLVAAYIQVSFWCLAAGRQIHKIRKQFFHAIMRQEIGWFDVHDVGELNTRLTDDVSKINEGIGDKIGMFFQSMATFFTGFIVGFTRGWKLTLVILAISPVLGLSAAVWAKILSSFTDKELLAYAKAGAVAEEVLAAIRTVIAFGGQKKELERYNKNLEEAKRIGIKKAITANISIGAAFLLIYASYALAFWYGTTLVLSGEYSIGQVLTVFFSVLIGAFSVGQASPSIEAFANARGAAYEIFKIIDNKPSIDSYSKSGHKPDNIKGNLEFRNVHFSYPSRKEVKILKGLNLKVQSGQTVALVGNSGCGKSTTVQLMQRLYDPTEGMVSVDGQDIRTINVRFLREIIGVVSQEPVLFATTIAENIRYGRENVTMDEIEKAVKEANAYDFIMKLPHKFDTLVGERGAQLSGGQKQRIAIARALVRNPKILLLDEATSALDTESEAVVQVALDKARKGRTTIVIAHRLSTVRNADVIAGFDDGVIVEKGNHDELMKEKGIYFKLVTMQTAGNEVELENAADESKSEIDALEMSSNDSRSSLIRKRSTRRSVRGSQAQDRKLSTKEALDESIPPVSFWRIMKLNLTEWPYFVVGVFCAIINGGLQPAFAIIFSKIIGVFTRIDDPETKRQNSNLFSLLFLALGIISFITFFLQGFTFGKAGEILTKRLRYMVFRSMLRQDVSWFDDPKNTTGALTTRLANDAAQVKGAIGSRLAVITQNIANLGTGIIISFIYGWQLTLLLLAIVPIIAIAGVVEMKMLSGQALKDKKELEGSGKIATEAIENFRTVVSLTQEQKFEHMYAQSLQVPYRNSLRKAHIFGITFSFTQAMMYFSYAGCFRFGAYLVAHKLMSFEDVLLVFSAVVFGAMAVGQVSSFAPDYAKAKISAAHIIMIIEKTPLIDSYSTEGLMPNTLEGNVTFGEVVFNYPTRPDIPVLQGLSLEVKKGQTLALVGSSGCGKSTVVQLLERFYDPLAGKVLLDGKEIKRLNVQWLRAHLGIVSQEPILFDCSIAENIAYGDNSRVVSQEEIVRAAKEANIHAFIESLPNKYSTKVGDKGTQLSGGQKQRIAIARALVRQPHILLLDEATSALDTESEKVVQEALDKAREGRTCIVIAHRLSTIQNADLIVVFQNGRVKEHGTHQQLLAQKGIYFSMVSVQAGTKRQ

Increase of brain uptake (Kp, Kp,uu) in mdr1a/1b knockout vs wild type mice ([1]; knockout vs wild type): > 30 fold
Kp at 2 h ([1]; Abcb1a/Abcb1b-eKO1 (P-gp knockout), intravenous, mdr1a/1b knockout mice, steady state, read-out: Kp (C,brain/C,plasma)): 6.35 ± 0.91
Kp at 2 h ([1]; Abcb1a/Abcb1b-eKO1 (P-gp knockout), intravenous, mdr1a/1b knockout mice, steady state, read-out: Kp,uu (C,brain·fu,brain)/C,plasma·fu,plasma)): 1.32
concentration at 2 h ([1]; Abcb1a/Abcb1b-eKO1 (P-gp knockout), brain, intravenous, mdr1a/1b knockout mice, steady state, read-out: C,brain): 1450 ± 175 ng/mL
concentration at 2 h ([1]; Abcb1a/Abcb1b-eKO1 (P-gp knockout), plasma, iv, mdr1a/1b knockout mice, steady state, 2-h i.v. infusion, read-out: C,plasma): 229 ± 6 ng/mL
concentration at 2 h ([1]; FVB (wild type and Abcb1a/Abcb1b knockout), plasma, intravenous, bolus dose followed by 2-h constant infusion, read-out: Plasma concentrations at steady state): 259 ± 30 ng/mL
Kp at 2 h ([1]; FVB wild-type (eletriptan), C57BL/6N (diphenhydramine), intravenous, wild type mice, steady state, read-out: Kp (C,brain/C,plasma)): 0.17 ± 0.016
Kp at 2 h ([1]; FVB wild-type (eletriptan), C57BL/6N (diphenhydramine), intravenous, wild type mice, steady state, read-out: Kp,uu (C,brain·fu,brain)/C,plasma·fu,plasma)): 0.04
concentration at 2 h ([1]; FVB wild-type (eletriptan), C57BL/6N (diphenhydramine), brain, intravenous, wild type mice, steady state, read-out: C,brain): 41 ± 5 ng/mL
concentration at 2 h ([1]; FVB wild-type (eletriptan), C57BL/6N (diphenhydramine), plasma, iv, wild type mice, steady state, 2-h i.v. infusion, read-out: C,plasma): 240 ± 18 ng/mL
IC50 (H^+/OC antiporter [2]; listed as eletriptan): ~15 µM
IC50 (H^+/OC antiporter [2]): 15 ± 4 µM
fraction unbound at 1 µM (in vitro; fu,brain): 0.083
fraction unbound at 1 µM (in vitro; fu,plasma): 0.4
Structure (SMILES): CN1CCC[C@@H]1Cc1c[nH]c2ccc(CCS(=O)(=O)c3ccccc3)cc12 [Eletriptan]
Cellular uptake after intracellular alkalization (H^+/OC antiporter [3]; acute exposure to 30 mM NH4Cl vs control pH 7.4): decreased
Cellular uptake at extracellular acidification (H^+/OC antiporter [3]; extracellular pH 6.8 vs pH 7.4): did not affect
Cellular uptake at extracellular alkalization (H^+/OC antiporter [3]; extracellular pH 8.2 vs pH 7.4): slight decrease
Proton-gradient dependence of uptake (H^+/OC antiporter [3]; hCMEC/D3 cells): yes
Cellular uptake after intracellular acidification (H^+/OC antiporter [3]; preexposure to 30 mM NH4Cl followed by media change vs control): statistically significant increase
cLogD pH 7.4 [4]: 1.1
P-gp substrate (P-gp [5]): substrates of P-gp
H^+/OC antiporter substrate (H^+/OC antiporter [6]): might be a substrate of the H^+/OC antiporter
ER (P-gp [7]): 44.7
Concentration-dependent uptake (saturability) (H^+/OC antiporter [8]; hCMEC/D3 cells, tested concentration range): reaching saturation within a 500 µM concentration
Association with H^+/OC antiporter (H^+/OC antiporter [8]; summary of uptake and inhibition studies in hCMEC/D3 cells): Substrate potent inhibitor
Jmax (H^+/OC antiporter [8]; uptake into hCMEC/D3 cells): 2.2 ± 0.7 nmol·min^−1·mg protein^−1
Km (H^+/OC antiporter [8]; uptake into hCMEC/D3 cells, read-out: Apparent Km): 89 ± 38 µM
